Results as given in US10485769B2, “Cholesteryl ester transfer protein (CETP) inhibition in the treatment of cancer” (KING ABDULLAH UNIVERSITY OF SCIENCE AND TECHNOLOGY, priority 2015, dated 2019).

Experiments:
CETP [1] = experiment: CETP mRNA in mice tumor samples, qRT-PCR; type: in vivo; conditions: 2 mg/kg PL, 5 mg/kg AP
Protocol: (§1) FIG. 7: Levels of CETP mRNA in tumor (A) and protein in serum (B) in mice tumor samples after treatment with 2 mg/kg PL or 5 mg/kg AP were determined with the RT-PCR and western blotting, respectively. Fold change in expression of serum protein was determined using densitometry analysis of western blots using ImageJ (C). CETP activity in serum was estimated using CETP activity kit (name of kit/manufacturer) (D). Values represent the means±SD of three independent experiments. * where p≤0.05, and ** where p≤0.005.
We performed qRT-PCR using mRNA isolated from mice tumor samples to determine the expression of CETP after treatment with PL and AP (FIG. 7A). […] CETP mRNA is translated into 74 kD protein comprised of 476 amino acids that localizes in plasma. […] CETP protein levels in mice serum samples were determined by western blotting (FIG. 7B).

MCF-7 tumors = experiment: Efficacy in MCF-7 xenograft nude mouse model of BC; type: in vivo, nude mice; conditions: 21 days
Protocol: FIG. 3: Comparative efficacy and toxicity study in MCF-7 xenograft nude mouse model of BC. The efficacy of single i.p. injection of vehicle, PL (2 mg/kg) and AP (5 mg/kg) in 5 mice in each group was compared over a period of 21 days.
MCF-7 tumors grown up to 300 mm3 in four nude mice were harvested, dissected into 1-2 mm3 fragments and implanted into the study group for further testing. Nude mice (with tumor volume of 150 mm3) were treated with 25% Polyethylene glycol (PEG) 400 as vehicle, 2 mg/kg PL and 5 mg/kg AP for 21 days during which tumor volume, body weight and, at the time of sacrifice, tumor weight was measured.

CETP [2] = experiment: CETP activity in mice plasma, CETP activity assay kit; type: in vivo; conditions: 5 mg/kg AP, compared to Vehicle
Protocol: as §1
The activity of CETP in mice plasma was determined using the CETP activity assay kit according to the manufacturer's instructions (FIG. 7D). CETP activity was […] in AP treated mice compared to Vehicle. This observation was in accordance with the CETP protein expression levels observed in Vehicle, AP and PL test groups. The expression levels of CETP have been reported to be linear with its activity.

MCF-7 cells [3] = conditions: as compared to BJ and triple negative BT20 cells; previously shown [1]; cited from earlier work
MCF-7 cells [4] = experiment: Viability of cancer cells, AP combined with chemotherapeutic drugs; type: cell-based, human; conditions: 24 h
Protocol: (§2) FIG. 13: The effect of AP on viability of BJ and MCF-7 cells when combined with different doses of various chemotherapeutic drugs for 24 h. Values represent the means±SD of three replicates.
(§3) We anticipated that AP might have the potential to reduce toxicity and increase efficacy of known chemotherapeutic drugs which may enhance the usage of these drugs at lower concentrations with increased cancer killing effects. To test this preliminary, we treated normal (BJ) and Cancer (MCF-7) cells with different chemotherapeutic drugs as summarized in FIG. 13.
(§4) It is also clear from data that the cancer killing effect achieved using 20 μM tamoxifen was possible to achieve using a combination of AP with 10 μM tamoxifen while enhancing the viability of normal cells at the same time.

BJ cells = experiment: Viability of normal cells, AP combined with chemotherapeutic drugs; type: cell-based, human
Protocol: as §2, §3, §4

SMILES | reduction of CETP expression in tumors (mRNA) (CETP [1]) | reduction of tumor volume (MCF-7 tumors; 2 mg/kg PL, 5 mg/kg AP) | tumor weight in comparison to vehicle (MCF-7 tumors; 2 mg/kg PL) | CETP activity in plasma (CETP [2]) | selectivity against MCF-7 (MCF-7 cells [3]) | inhibition of tumor growth (MCF-7 tumors; 5 mg/kg AP) [%] | reduction of viability of cancer cells (MCF-7 cells [4]; AP in combination with 5-Florouracil) [%] | reduction of viability of cancer cells (MCF-7 cells [4]; AP with 10 μM of tamoxifen) [%] | increase of cell viability of normal cells (BJ cells; AP in combination with 5-Florouracil, 24 h) [%] | increase of viability of normal cells (BJ cells; AP with 10 μM of tamoxifen, 24 h) [%] | rescue of normal cells from toxic effects of tamoxifen (BJ cells; AP with tamoxifen at higher concentrations)
CC1=CC(=O)c2c(O)cccc2C1=O [PL, 5-hydroxy-2-methyl-1,4-naphthoquinone, reference compound] | no effect | approximately 17% | no difference |  |  |  |  |  |  |  | 
CC(=O)Oc1cccc2c1C(=O)C=C(C)C2=O [AP, Acetyl Plumbagin] | 60% | 37% |  | elevated | selective activity | 45 | 76 | 50 | 7 | 7 | unable to rescue
